Where two headings read alike, the source gives them in different places.
Assays:
[1] = target: T1, human DDX3 (ATPase activity) (Homo sapiens, UniProt O00571); assay: Human DDX3 ATPase activity assay (luciferase-based luminescence); assay type: biochemical; conditions: DDX3 ATPase activity; read-out: Ki (μM), apparent equilibrium dissociation constant for the inhibitor to the target enzyme DDX3
T1 construct: made in house; host or cells: E. coli
Experimental: ATPase activity was tested with a luciferase-based luminescence assay (Easylite-Kinase, Perkin Elmer) on 96 wells microtiter plates. Briefly, recombinant purified human DDX3 (50-100 ng) was incubated in a 15 μL total reaction volume with reaction buffer (25 mM TrisHCl pH 7.5, 5 mM MgCl2), in the presence of increasing amounts of ATP and/or different combinations of ATP and the inhibitor to be tested. Reference curves in the absence of inhibitor (giving the 100% of enzymatic activity) and in the absence of enzyme (giving the baseline), were also included in each experiment. Reading was performed with a Microbeta Trilux (Perkin Elmer) luminometer, according to the manufacturer's protocol.
ATPase reactions were performed as described, in the presence of increasing amounts of inhibitor and variable ATP concentrations. Variations of the initial velocities of the reaction as a function of ATP concentrations in the absence or presence of 4 were analyzed with the equation: […]
Variation of the % inhibition as a function of compound FE15 at different ATP concentrations were fitted to the equation for cooperative binding: […]
where Vmax is the apparent maximal rate of the reaction in the absence of the inhibitor, [I] is the variable inhibitor concentration, n is the cooperativity index and Ki(app) is the apparent inhibition constant. Comparatively, fitting was done with the same Eq. (2) where n was kept fixed at the value of 1 (non-cooperativity hypothesis). F test was used to compare the two fittings and p value was calculated.
Human recombinant DDX3 was cloned, expressed and purified as described (Franca et al. Proteins 2007, 67, 1128-37).
The anti-DDX3 activity of the compounds of the invention was evaluated by in vitro ATPase activity assay using the recombinant human DDX3 protein produced in E. coli. The potency of inhibition (Ki) for each molecule was calculated, representing the concentration of the inhibitor able to reduce the DDX3 ATPase activity by 50%

[2] = system: HIV-1; assay: Antiviral assay, HIV-1 replication in infected PBMCs (viral RNA in supernatant); assay type: cell-based; conditions: for EC50: Human immunodeficiency virus 1, PBMC; for viral RNA, multiple rounds of replication: PBMC, wild type HIV-1, 5 days post infection, FE15 50 μM, FE66 (35b) 5 μM
Experimental: (§1) FIG. 1. A) Antiviral activity (expressed as % of viral load with respect to the control) of compounds FE56 and FE66 at 0.3 μM and 3 μM doses against single round HIV-1 replication in HeLaCD4+ cells infected with a wild type HIV-1 strain. Measurements were performed at 72 h post infection. B) Antiviral activity of compounds FE15 and FE66 on HIV-1 replication in phytohemagglutinin-stimulated peripheral blood mononuclear cells (PBMCs) […] with HeLa CD4^+-cell culture supernatants containing wild type HIV. Compounds were tested at 50 μM (FE15) and 5 μM (FE66). The HIV-1 RNA was quantified in the cell culture supernatant after 3, and 5 days of incubation. Results are expressed as HIV RNA copies/ml. Control (white bars).
FIG. 2. Antiviral activity of DDX3 inhibitors. A) Comparison of the antiviral activity (expressed as % of viral RNA with respect to the control) on infected PBMCs of a fixed dose of selected inhibitors. Measurements were performed at 72 h post infection. Values are the means of three independent replicates. Error bars are ±SD. White bars: control without drugs; dark grey bar: positive control with AZT (0.01 μM); black bar: first generation inhibitor FE15 (50 μM); light grey bars: second generation DDX3 inhibitors FE66, 11d and 38 (3 μM). B) Dose-response curves for the inhibiton of HIV-1 replication (expressed as % of viral RNA with respect to the control) in infected PBMCs by FE15 (circles) and 38 (triangles). Measurements were performed at 72 h post infection. Values are the means of three independent replicates. Error bars are ±SD.
In detail, 0.5 μg of each HIV-1 plasmid construct was transfected into CD4 HeLa cells by using the lipofectin reagent, according to the recommendations of the manufacturer (Invitrogen, Groningen, The Netherlands). After 3 days of incubation at 37° C., the cell supernatants, which contained reconstituted viable recombinant viruses, were collected. Quantification of the newly produced recombinant strains was obtained by determination of the HIV RNA copy number in the cell culture supernatants. Successively, 10 ml of transfected HeLa CD4^+-cell culture supernatants containing wild-type, and mutated recombinant HIV strain […], was used to infect aliquots of 10×10^6 phytohemagglutinin-stimulated peripheral blood mononuclear cells (PBMCs) from HIV-seronegative blood donors. After 4 h of incubation, supernatants were removed and infected PBMCs were incubated at 37° C. in 10 ml of RPMI 1640 medium (Eurobio, Les Ulis Cedex B, France) supplemented with 20% fetal calf serum (Life Technologies, Ltd., Paisley, Scotland), 2 mM l-glutamine, 100 U of penicillin per ml, 100 μg of streptomycin per ml, 10% interleukin-2 (ZeptoMetrix Co., Buffalo, N.Y.), 5 μg of hydrocortisone (Sigma Chemical Co.) per ml and with fourfold dilutions of antiretroviral drugs. No-drug controls for each drug dilution were included in each assay. After 3, 5 and 7 days of incubation the HIV-1 RNA in the cell culture supernatant was quantified. Recombinant HIV-1 strains from treatment-naive patients and multidrug resistance-associated changes were assayed in parallel. The degree of inhibition of viral replication was measured by determining the HIV-1 RNA level in the supernatants of cell cultures and was expressed as the fold increase in the 50% inhibitory concentrations (IC50s) for resistant recombinant HIV-1 variants compared with the IC50s for the wild-type recombinant variant. Each test was performed in triplicate.

[3] = system: wild type HIV-1 strain; assay: HIV-1 single round replication in HeLaCD4+ cells; assay type: cell-based; conditions: wild type HIV-1, 0.3 μM and 3 μM doses, 72 h post infection
Experimental: as §1
Selected compounds from Table 1 were tested against HIV-1 replication in two different model systems.

[4] = Cell viability / cytotoxicity on HeLa cells; assay type: cell-based; conditions: human, HeLa cells (cervical cancer cell line)
Experimental: (§2) Cell viability in the presence of the compounds has been determined by standard MTT assays.
(§3) Selected compounds from Table 1 were tested against the cervical cancer HeLa cell line for antiproliferative activity. Cell viability was measured with the CellTiter viability assay (Table 2). Table 3 lists the calculated antiproliferative potencies (EC50, dose required to suppress 50% of cell viability) for a series of representative compounds of the invention.

[5] = system: HeLa cells; assay: Cell viability / cytotoxicity on HeLa cells; assay type: cell-based; conditions: for Selectivity index HeLa, CC50/EC50: HeLa CC50 / antiviral EC50
Experimental: as §2, §3

[6] = Cell viability / cytotoxicity on MOLT-4 cells; assay type: cell-based; conditions: human, MOLT-4 cells; MOLT-4; Table 2 prints no unit; read-out: Cytotoxicity (CC50) MOLT-4, dose required to reduce 50% cell vitality
Text: as §2

[7] = system: MOLT-4; assay: Cell viability / cytotoxicity on MOLT-4 cells; assay type: cell-based; conditions: MOLT-4 CC50 / antiviral EC50
Text: as §2

[8] = Cell viability / cytotoxicity on PBMCs; assay type: cell-based; conditions: human; PBMCs; Table 2 prints no unit; read-out: Cytotoxicity (CC50) PBMCs, dose required to reduce 50% cell vitality
Text: as §2

[9] = system: PBMCs; assay: Cell viability / cytotoxicity on PBMCs; assay type: cell-based; conditions: PBMCs CC50 / antiviral EC50
Text: as §2

[10] = system: cervical cancer HeLa cell line; assay: Antiproliferative activity against HeLa cells (CellTiter viability assay); assay type: cell-based; conditions: Homo sapiens
Experimental: as §3

[11] = 72 h, read-out: EC50, anti-HIV activity
[12] = read-out: Antiviral activity, dose required to reduce 50% viral proliferation (measured as viral RNA load)
[13] = HeLa, Table 2 prints no unit, text gives μM, read-out: Cytotoxicity (CC50) HeLa, dose required to reduce 50% cell vitality

T1 sequence (O00571 whole entry): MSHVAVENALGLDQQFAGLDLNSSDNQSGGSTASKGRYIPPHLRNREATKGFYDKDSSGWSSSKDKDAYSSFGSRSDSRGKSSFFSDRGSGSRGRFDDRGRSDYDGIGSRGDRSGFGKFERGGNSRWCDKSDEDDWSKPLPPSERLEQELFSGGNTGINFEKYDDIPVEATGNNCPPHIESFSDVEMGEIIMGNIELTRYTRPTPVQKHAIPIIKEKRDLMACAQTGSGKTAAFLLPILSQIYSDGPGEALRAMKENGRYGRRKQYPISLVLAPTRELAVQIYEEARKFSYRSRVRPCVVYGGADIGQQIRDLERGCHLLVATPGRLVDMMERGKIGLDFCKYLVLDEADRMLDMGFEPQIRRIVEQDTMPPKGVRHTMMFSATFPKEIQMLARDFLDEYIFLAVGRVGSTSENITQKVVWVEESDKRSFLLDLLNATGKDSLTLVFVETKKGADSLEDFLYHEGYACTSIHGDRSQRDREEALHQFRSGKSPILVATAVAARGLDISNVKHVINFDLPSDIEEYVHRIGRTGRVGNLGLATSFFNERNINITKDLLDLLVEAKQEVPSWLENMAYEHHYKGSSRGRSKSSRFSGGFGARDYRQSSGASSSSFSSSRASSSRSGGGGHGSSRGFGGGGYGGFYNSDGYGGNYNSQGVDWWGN

Structure (SMILES)	Ki [1] [µM]	EC50 [2, 11] [µM]	EC50 [2, 12] [µM]	viral RNA, multiple rounds of replication [2]	viral load (viral RNA copies), single-round replication [3]	CC50 [4, 13] [µM]	Selectivity index HeLa, CC50/EC50 [5]	CC50 [6] [µM]	Selectivity index MOLT-4, CC50/EC50 [7]	CC50 [8] [µM]	Selectivity index PBMCs, CC50/EC50 [9]	EC50 ([10]; 48 hours, read-out: EC50 (μM) 48 hours, dose required to suppress 50% of cell viability) [µM]	EC50 ([10]; 72 hours, read-out: EC50 (μM) 72 hours, dose required to suppress 50% of cell viability) [µM]	melting point [°C]	reduction of viral load compared with 11d and 38 at 3 μM ([2]; HIV-1 infected PBMCs, compound at 50 μM, 72 h post infection)	CC50 ([4]; read-out: CC50, cytotoxicity on HeLa cells) [µM]	CC50 [5, 13] [µM]
O=C(CCN1C(=O)/C(=C/c2cccc(F)c2)SC1=S)Nc1ccccc1O [Compound 35b, 3-((Z)-5-(3-Fluorobenzylidene)-4-oxo-2-thioxothiazolidin-3-yl)-N-(2-hydroxyphenyl) propanamide]	0.3	7.5	7.5 ± 0.7	significant reduction of viral RNA	dose-dependent reduction of viral load	50 ± 5	6.7	50 ± 10	6.7	50 ± 5	6.7	50	10	210 to 211	–	–	–
O=C(CCN1C(=O)/C(=C/c2cccc(Br)c2)SC1=S)Nc1ccccc1O [FE-15, (Z)-3-(5-(3-Bromobenzylidene)-4-oxo-2-thioxothiazolidin-3-yl)-N-(2-hydroxyphenyl)propanamide]	4.5	83	83 ± 7	significant reduction of viral RNA	–	–	2.4	> 200	2.4	> 150	1.8	–	–	222 to 224	comparable effects	> 200	> 200
O=C1Nc2ccccc2/C1=N/Nc1nc(Nc2ccccc2)nc(Nc2ccccc2)n1 [FE-56]	0.4	–	–	–	dose-dependent reduction of viral load	–	–	–	–	–	–	–	–	–	–	–	–

— patent US20120202814A1, “COMPOUNDS WITH DDX3 INHIBITORY ACTIVITY AND USES THEREOF” (UNIVERSITÀ DEGLI STUDI DI SIENA, priority 2009, published 2012)
